Results taken from the NIST ThermoML archive (doi:10.1016/j.jct.2017.07.014).

What was measured:
[1] = molar heat capacity at constant pressure; xn = mol fraction of the nth substance listed; conditions: 102.6 kPa, Liquid, Large sample (1 g) DSC, x1 = 0.107
[2] = refractive index (other wavelength) (dimensionless); xn = mol fraction of the nth substance listed; conditions: 108 kPa, Liquid, Wavelength=632.8 nm, minimum deviation method

CCCCn1cc[n+](C)c1.F[P-](F)(F)(F)(F)F [1-butyl-3-methylimidazolium hexafluorophosphate] + CCO
[1]
Conditions	molar heat capacity at constant pressure [J/K/mol]
342.93 K	175.43
343.26 K	175.79
343.6 K	175.65
343.91 K	175.72
344.24 K	175.72
344.56 K	175.79
344.9 K	175.86
345.21 K	176.08
345.55 K	175.93
345.87 K	175.86
346.19 K	176.15
346.54 K	176.65
346.86 K	176.43
347.17 K	177.08
347.51 K	176.72
347.82 K	176.65
348.15 K	176.79

[2]
Conditions	refractive index
315.21 K, x1 = 1	1.4038
317.26 K, x1 = 1	1.4032
319.23 K, x1 = 1	1.4027
320.24 K, x1 = 0.3	1.3841
320.24 K, x1 = 0.4	1.3889
320.24 K, x1 = 0.901	1.4008
320.25 K, x1 = 0.6	1.3951
320.25 K, x1 = 0.7	1.3973
320.26 K, x1 = 0.801	1.3992
320.27 K, x1 = 0.5	1.3923
321.27 K, x1 = 0.3	1.3838
321.27 K, x1 = 0.801	1.3989
321.27 K, x1 = 0.901	1.4005
321.28 K, x1 = 0.7	1.3971
321.29 K, x1 = 0.4	1.3886
321.29 K, x1 = 0.6	1.3949
321.35 K, x1 = 0.5	1.392
321.47 K, x1 = 1	1.4021
322.24 K, x1 = 0.3	1.3835
322.27 K, x1 = 0.7	1.3968
322.27 K, x1 = 0.901	1.4002
322.29 K, x1 = 0.4	1.3884
322.29 K, x1 = 0.5	1.3918
322.29 K, x1 = 0.6	1.3945
322.29 K, x1 = 0.801	1.3987
323.24 K, x1 = 0.901	1.4
323.25 K, x1 = 0.3	1.3832
323.27 K, x1 = 0.5	1.3915
323.28 K, x1 = 0.801	1.3984
323.3 K, x1 = 0.4	1.388
323.3 K, x1 = 0.6	1.3943
323.3 K, x1 = 0.7	1.3965
323.47 K, x1 = 1	1.4016
323.58 K, x1 = 0.2	1.3759
324.23 K, x1 = 0.801	1.3981
324.23 K, x1 = 0.901	1.3997
324.24 K, x1 = 0.7	1.3962
324.26 K, x1 = 0.3	1.3828
324.28 K, x1 = 0.4	1.3877
324.28 K, x1 = 0.6	1.394
324.3 K, x1 = 0.5	1.3912
324.56 K, x1 = 0.2	1.3756
325.26 K, x1 = 0.801	1.3979
325.28 K, x1 = 0.4	1.3874
325.28 K, x1 = 0.6	1.3938
325.31 K, x1 = 0.3	1.3825
325.31 K, x1 = 0.901	1.3994
325.32 K, x1 = 0.7	1.396
325.34 K, x1 = 0.5	1.3909
325.4 K, x1 = 1	1.4011
325.42 K, x1 = 0.1	1.3647
325.63 K, x1 = 0.2	1.3753
326.48 K, x1 = 0.4	1.387
326.51 K, x1 = 0.3	1.3822
326.58 K, x1 = 0.801	1.3975
326.59 K, x1 = 0.901	1.3991
326.6 K, x1 = 0.5	1.3905
326.6 K, x1 = 0.6	1.3934
326.61 K, x1 = 0.7	1.3956
326.64 K, x1 = 0.1	1.3643
327.05 K, x1 = 0.2	1.3748
327.64 K, x1 = 0.4	1.3867
327.65 K, x1 = 0.5	1.3902
327.67 K, x1 = 0.6	1.3931
327.73 K, x1 = 0.7	1.3953
327.75 K, x1 = 0.3	1.3817
327.86 K, x1 = 0.1	1.3639
327.91 K, x1 = 0.901	1.3987
327.93 K, x1 = 0.801	1.3972
328.27 K, x1 = 0.2	1.3744
328.91 K, x1 = 0.1	1.3636
329.44 K, x1 = 0.1	1.3634
